Assay [1] concerns the target T1, human Cot catalytic domain (30-397 amino acids) (Homo sapiens, UniProt P41279).
T1 construct: Purified recombinant human Cot catalytic domain (30-397 amino acids) was purchased from Cama Biosciences; purchased Cama Biosciences (so in the source)
Description: High Throughput Cot Biochemical Assay (KinEASE TR-FRET). The following applies: read-out: IC50 HTRF. Summed up: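 TR-FRET (KinEASE) read-out: Eu-labelled phospho-specific antibody binds XL665-tagged STK3 peptide (1 μM) phosphorylated by 5 nM human Cot kinase domain (residues 30-397). Reaction at 400 μM ATP, pH 7.0 MOPS buffer with 10 mM MgOAc, 1 mM DTT and 0.1% DMSO.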

In assay [2] the test system is TNFα production in LPS-stimulated human monocytes. Description: Cot Monocyte TNFα Cell Based Assay. The following applies: Homo sapiens, Monocyte, read-out: EC50 TNF. Summed up: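 TNFα release quantified by two-antibody TR-FRET, normalised to unstimulated (0%) and LPS-stimulated (100%) wells. Cells got a 1 h compound exposure at 37° C in 0.5% DMSO before 4 h challenge with 50 pg/ml LPS, at 5,000 cells/well.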

Where [3] appears, read: Cot biochemical HTRF (KinEASE TR-FRET) assay.
[4] abbreviates: TNFα in LPS-stimulated human monocytes.
Where [5] appears, read: Cot KinEASE TR-FRET, 400 μM ATP.
Where [6] appears, read: LPS-stimulated human monocytes, TNFα TR-FRET.
The mark [7] stands for this setting: Cot KinEASE TR-FRET (HTRF) biochemical assay, 400 μM ATP.

Where two headings read alike, the source gives them in different places. Where only a bound is given, the exact number is not on record here.

T1 sequence (P41279 30-397): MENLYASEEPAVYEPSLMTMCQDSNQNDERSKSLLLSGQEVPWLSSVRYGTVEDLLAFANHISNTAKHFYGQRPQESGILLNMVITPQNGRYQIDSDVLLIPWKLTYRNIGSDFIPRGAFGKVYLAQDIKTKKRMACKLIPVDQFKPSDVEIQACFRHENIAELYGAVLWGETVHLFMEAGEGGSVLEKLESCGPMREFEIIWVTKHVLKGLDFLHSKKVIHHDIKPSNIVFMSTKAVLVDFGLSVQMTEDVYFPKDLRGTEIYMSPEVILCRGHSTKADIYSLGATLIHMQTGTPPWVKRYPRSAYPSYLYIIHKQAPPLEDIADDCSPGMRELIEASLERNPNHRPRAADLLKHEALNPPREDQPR

By IC50 is commonly meant the concentration needed to halve the response being measured. One may read the EC50 as the concentration needed to bring the measured effect to its halfway point. Take `CC[C@@H](Nc1c(C#N)cnc2c(Cl)cc(N[C@@H](c3c[nH]nn3)c3ccccc3Cl)cc12)c1ccccc1` [Example 532, 8-chloro-6-(((R)-(2-chlorophenyl)(1H-1,2,3-triazol-4-yl)methyl)amino)-4-(((R)-1-phenylpropyl)amino)quinoline-3-carbonitrile]: the IC50 in assay [1] (setting [3]) was over 10000 nM. In addition, the EC50 in assay [2] (setting [4]) is over 10000 nM.

Turning to `CCN1CCC(n2cc([C@@H](Nc3cc(Cl)c4ncc(C#N)c(NCC(C)(C)C)c4c3)c3ccc(Cl)cc3)nn2)CC1` [Example 954, (S)-8-chloro-6-(((4-chlorophenyl)(1-(1-ethylpiperidin-4-yl)-1H-1,2,3-triazol-4-yl)methyl)amino)-4-(neopentylamino)quinoline-3-carbonitrile], the IC50 in assay [1] (setting [5]) amounted to 5 nM. Moreover, the EC50 in assay [2] (setting [6]) is 130 nM.

Consider `CC(C)(C)CNc1c(C#N)cnc2c(F)cc(N[C@H](c3cn(C4(C(N)=O)CC4)nn3)c3ccccc3Cl)cc12` [Example 999, (S)-1-(4-((2-chlorophenyl)((3-cyano-8-fluoro-4-(neopentylamino)quinolin-6-yl)amino)methyl)-1H-1,2,3-triazol-1-yl)cyclopropane-1-carboxamide], for which the IC50 in assay [1] (setting [5]) was 63 nM. The EC50 in assay [2] (setting [6]) was found to be 306 nM.

As for `N#Cc1cccc([C@H](Nc2cc(Cl)c3ncc(C#N)c(Nc4ccc(Cl)c(Cl)c4F)c3c2)c2cn(C3COC3)nn2)c1` [Example 466, (S)-8-chloro-6-(((3-cyanophenyl)(1-(oxetan-3-yl)-1H-1,2,3-triazol-4-yl)methyl)amino)-4-((3,4-dichloro-2-fluorophenyl)amino) quinoline-3-carbonitrile], the IC50 in assay [1] (setting [3]) came out at 53 nM. Moreover, the EC50 in assay [2] (setting [4]) was determined as 1400 nM.

Take `CC(C)(C)N1CCC(n2cc([C@@H](Nc3cc(Cl)c4ncc(C#N)c(Nc5cc(Cl)c(Cl)cc5F)c4c3)c3ccc(Cl)cc3)nn2)CC1` [Example 664, (S)-6-(((1-(1-(tert-butyl)piperidin-4-yl)-1H-1,2,3-triazol-4-yl)(4-chlorophenyl)methyl)amino)-8-chloro-4-((4,5-dichloro-2-fluorophenyl)amino)quinoline-3-carbonitrile]: the IC50 in assay [1] (setting [3]) was determined as 379 nM. Further, the EC50 in assay [2] (setting [4]) was found to be 8150 nM.

Consider `N#Cc1cnc2c(Cl)cc(N[C@@H](c3ccc(Cl)cc3)c3c[nH]nn3)cc2c1Nc1c(F)cccc1F` [Example 640, (S)-8-chloro-6-(((4-chlorophenyl)(1H-1,2,3-triazol-4-yl)methyl)amino)-4-((2,6-difluorophenyl)amino)quinoline-3-carbonitrile], for which, in assay [1] (setting [3]), the IC50 is 2340 nM. Further, in assay [2] (setting [4]), the EC50 was 2840 nM.

For `[2H][C@@](Nc1cc(Cl)c2ncc(C#N)c(N[C@H](CC)c3ccccc3)c2c1)(c1cn(C2CC2)nn1)c1ccccc1Cl` [Example 357, 8-chloro-6-(((S)-(2-chlorophenyl)(1-cyclopropyl-1H-1,2,3-triazol-4-yl)methyl-d)amino)-4-(((R)-1-phenylpropyl)amino) quinoline-3-carbonitrile], the IC50 in assay [1] (setting [7]) came to 20 nM. The EC50 in assay [2] (setting [4]) is 522 nM.

For the compound `CC(C)n1cc([C@@H](Nc2cc(Cl)c3ncc(C#N)c(Nc4ccc(F)c(Cl)c4)c3c2)c2cccc(S(=O)(=O)N(C)C)c2)nn1` [Example 383, (S)-3-(((8-chloro-4-((3-chloro-4-fluorophenyl)amino)-3-cyanoquinolin-6-yl)amino)(1-isopropyl-1H-1,2,3-triazol-4-yl)methyl)-N,N-dimethylbenzenesulfonamide], the IC50 in assay [1] (setting [7]) is 11 nM. In addition, the EC50 in assay [2] (setting [4]) is 148 nM.

In the case of `CC(=O)N(C)c1cccc([C@H](Nc2cc(Cl)c3ncc(C#N)c(Nc4cnc(F)c(F)c4)c3c2)c2cn(CC(F)(F)F)nn2)c1` [Example 510, (S)-N-(3-(((8-chloro-3-cyano-4-((5,6-difluoropyridin-3-yl)amino)quinolin-6-yl)amino)(1-(2,2,2-trifluoroethyl)-1H-1,2,3-triazol-4-yl)methyl)phenyl)-N-methylacetamide], the IC50 in assay [1] (setting [3]) worked out at 5 nM. In assay [2] (setting [4]), the EC50 amounted to 321 nM.

As for `[2H][C@](Nc1cc(Cl)c2ncc(C#N)c(Nc3ccc(F)c(Cl)c3)c2c1)(c1ccc(F)cc1)c1cn(CC(=O)O)nn1` [Example 116, (S)-2-(4-(((8-chloro-4-((3-chloro-4-fluorophenyl)amino)-3-cyanoquinolin-6-yl)amino)(4-fluorophenyl)methyl-d)-1H-1,2,3-triazol-1-yl)acetic acid], the IC50 in assay [1] (setting [7]) is 14 nM. Besides, the EC50 in assay [2] (setting [4]) was over 10000 nM.

As to `CC(C)(C)CNc1c(C#N)cnc2c(Cl)cc(N[C@H](c3cn(C4(C(F)(F)F)CC4)nn3)c3cccc(C(=O)O)c3F)cc12` [Example 1112, (S)-3-(((8-chloro-3-cyano-4-(neopentylamino)quinolin-6-yl)amino)(1-(1-(trifluoromethyl)cyclopropyl)-1H-1,2,3-triazol-4-yl)methyl)-2-fluorobenzoic acid], the IC50 in assay [1] (setting [5]) is 76 nM. Further, in assay [2] (setting [6]), the EC50 is at least 1000 nM.

In the case of `CC(C)(C)CNc1c(C#N)cnc2c(C#N)cc(N[C@H](c3cn(C4(C(N)=O)CCOCC4)nn3)c3ccccc3Cl)cc12` [Example 1023, (S)-4-(4-((2-chlorophenyl) ((3,8-dicyano-4-(neopentylamino)quinolin-6-yl)amino)methyl)-1H-1,2,3-triazol-1-yl)tetrahydro-2H-pyran-4-carboxamide], the IC50 in assay [1] (setting [5]) amounted to 21 nM. For the same compound, the EC50 in assay [2] (setting [6]) is at least 1000 nM.

For `[2H][C@](Nc1cc(Cl)c2ncc(C#N)c(NCC(C)(C)C)c2c1)(c1cn(CC(F)(F)F)nn1)c1ccccc1Cl` [Example 93, 8-chloro-6-(((2-chlorophenyl) (1-(2,2,2-trifluoroethyl)-1H-1,2,3-triazol-4-yl)methyl-d)amino)-4-(neopentylamino) quinoline-3-carbonitrile], the IC50 in assay [1] (setting [7]) was found to be 59 nM. Further, the half-maximal effective concentration (EC50) in assay [2] (setting [4]) was 832 nM.

As to `CC(C)(C)N1CCC(n2cc([C@@H](Nc3cc(Cl)c4ncc(C#N)c(Nc5c(F)cccc5F)c4c3)c3ccc(Cl)cc3)nn2)CC1` [Example 653, (S)-6-(((1-(1-(tert-butyl)piperidin-4-yl)-1H-1,2,3-triazol-4-yl)(4-chlorophenyl)methyl)amino)-8-chloro-4-((2,6-difluorophenyl)amino)quinoline-3-carbonitrile], in assay [1] (setting [3]), the IC50 was found to be 160 nM. Also, in assay [2] (setting [4]), the EC50 was 9280 nM.

As for `CC(C)n1cc([C@@H](Nc2cc(Cl)c3ncc(C#N)c(N[C@@H](c4ccccc4)C(F)(F)F)c3c2)c2ccc(F)cc2)nn1` [Example 364, 8-chloro-6-(((S)-(4-fluorophenyl)(1-isopropyl-1H-1,2,3-triazol-4-yl)methyl)amino)-4-(((S)-2,2,2-trifluoro-1-phenylethyl)amino)quinoline-3-carbonitrile], the IC50 in assay [1] (setting [7]) was 48 nM. In assay [2] (setting [4]), the concentration for a half-maximal effect (EC50) was determined as 631 nM.

For `Cn1cnc(C(Nc2cc(Cl)c3ncc(C#N)c(Nc4ccc(F)c(Cl)c4)c3c2)c2ccc(Cl)cc2)c1` (stereo not drawn) [Example 894, 8-chloro-4-((3-chloro-4-fluorophenyl)amino)-6-(((4-chlorophenyl)(1-methyl-1H-imidazol-4-yl)methyl)amino)quinoline-3-carbonitrile], in assay [1] (setting [3]), the IC50 is 168 nM. Further, in assay [2] (setting [4]), the EC50 stood at 1750 nM.

Regarding `CC(C)(C)CNc1c(C#N)cnc2c(Br)cc(N[C@H](c3cn(Cc4c(F)cccc4F)nn3)c3ccccc3Cl)cc12` [Example 1052, (S)-8-bromo-6-(((2-chlorophenyl)(1-(2,6-difluorobenzyl)-1H-1,2,3-triazol-4-yl)methyl)amino)-4-(neopentylamino)quinoline-3-carbonitrile], in assay [1] (setting [5]), the IC50 was determined as 189 nM. In addition, the EC50 in assay [2] (setting [6]) is at least 1000 nM.

`[2H][C@](Nc1cc(Cl)c2ncc(C#N)c(NN3CCCCC3)c2c1)(c1ccc(F)cc1)c1cn(C2CC2)nn1` [Example 178, (S)-8-chloro-6-(((1-cyclopropyl-1H-1,2,3-triazol-4-yl)(4-fluorophenyl)methyl-d)amino)-4-(piperidin-1-ylamino) quinoline-3-carbonitrile]: the IC50 in assay [1] (setting [7]) stood at 110 nM. In addition, in assay [2] (setting [4]), the EC50 was determined as 674 nM.

Consider `CC(C)n1cc([C@@H](Nc2cc(Cl)c3ncc(C#N)c(Nc4ccc(F)c(Cl)c4)c3c2)c2cccc(NS(C)(=O)=O)c2)nn1` [Example 566, (S)-N-(3-(((8-chloro-4-((3-chloro-4-fluorophenyl)amino)-3-cyanoquinolin-6-yl)amino)(1-isopropyl-1H-1,2,3-triazol-4-yl)methyl)phenyl) methanesulfonamide], for which the IC50 in assay [1] (setting [3]) was determined as 5 nM. The EC50 in assay [2] (setting [4]) stood at 353 nM.

Regarding `N#Cc1cnc2c(Cl)cc(N[C@@H](c3ccccc3)c3cn(CC(O)C(F)(F)F)nn3)cc2c1Nc1ccc(F)c(Cl)c1` (stereo partly drawn) [Example 605, 8-chloro-4-((3-chloro-4-fluorophenyl)amino)-6-(((1S)-phenyl(1-(3,3,3-trifluoro-2-hydroxypropyl)-1H-1,2,3-triazol-4-yl)methyl)amino)quinoline-3-carbonitrile], the IC50 in assay [1] (setting [3]) amounted to 41 nM. The EC50 in assay [2] (setting [4]) amounted to 375 nM.

On to `[2H][C@](Nc1cc(Cl)c2ncc(C#N)c(NCCc3ccn(C)n3)c2c1)(c1ccc(F)cc1)c1cn(C2CC2)nn1` [Example 148, (S)-8-chloro-6-(((1-cyclopropyl-1H-1,2,3-triazol-4-yl)(4-fluorophenyl)methyl-d)amino)-4-((2-(1-methyl-1H-pyrazol-3-yl)ethyl)amino) quinoline-3-carbonitrile], for which, in assay [1] (setting [7]), the IC50 came to 2140 nM. Besides, the EC50 in assay [2] (setting [4]) stood at 8670 nM.

For the origin of these results see patent US10316017B2, “COT modulators and methods of use thereof” (Gilead Sciences, Inc., priority 2015, dated 2019).
